Data: publication PMC9077134 (OncoTargets and therapy, 2022)

Columns and labels:
Chemical stability assay = format: physicochemical; details: 37 °C
[1] = Caco-2 bidirectional permeability assay; details: human, Caco-2, 10 µM, 37 °C
[2] = tested on: MCF7 (EGFR positive cancer cell line); assay: LDH release cytotoxicity / cell viability assay in MCF7; format: cell-based; details: Homo sapiens
[3] = Log D7.4 shake flask assay; format: physicochemical; details: octanol/PBS, pH 7.4
[4] = buffer pH 2.0, pH 2, Chemical Stability - Half-Life, pH 2.0, 5 µM
[5] = buffer pH 10.0, pH 10, Chemical Stability - Half-Life, pH 10.0, 5 µM

**Q.** With `COc1ccc2[nH]c([S+]([O-])Cc3ncc(C)c(OC)c3C)nc2c1` (stereo not shown) [Omeprazole] as the compound, how does the half-life at 5 µM (Chemical stability assay; [4]) read?
**A.** 10.2 ± 3.1 min

**Q.** What about the half-life at 5 µM (Chemical stability assay; [5]) of the same compound?
**A.** 55.3 ± 11.4 min

**Q.** What does the source list for `CC(C)NCC(O)COc1cccc2ccccc12` (stereo not shown) [Propranolol, propranolol]?
**A.** Papp at 2 h, 10 µM ([1]; Caco-2, pH 7.4, Papp (Apical to Basal), apical to basal): 29 ± 1.2 ×10⁻⁶ cm/s; Papp at 2 h, 10 µM ([1]; Caco-2, pH 7.4, Papp (Basal to Apical), basal to apical): 21.1 ± 0.3 ×10⁻⁶ cm/s

**Q.** With `CC(C)(O)CC(=O)NCCn1ccc2ncnc(Nc3ccc(Oc4cccc(C(F)(F)F)c4)c(Cl)c3)c21` [TAK-285] as the compound, how does the IC50 [2] read?
**A.** 15.5 ± 5.6 µM

**Q.** What does the source list for `CC(C)[N+](C)(CCOC(=O)C1c2ccccc2Oc2ccccc21)C(C)C` [Propantheline bromide]?
**A.** half-life at 5 µM (Chemical stability assay; [4]): 82.9 ± 14.8 min; half-life at 5 µM (Chemical stability assay; [5]): 8.3 ± 2.6 min

**Q.** For `CCCSc1ccc2nc(NC(=O)OC)[nH]c2c1` [Albendazole, albendazole], which solubility at 24 h (Thermodynamic solubility; pH 4.5) is on record?
**A.** < 1 µg/mL

**Q.** And the “Thermodynamic Solubility” value (Thermodynamic solubility; pH 7.4, PBS, room temperature, 24 h)?
**A.** 0.72 ± 0.2 µg/mL

**Q.** And the logD at 4 h [3]?
**A.** 3.6 ± 0.1
